{"source": "patent US11672964B2", "about": "“Bioactive components conjugated to substrates of microneedle arrays” (University of Pittsburgh—Of the Commonwealth System of …, priority 2015, dated 2023)", "key": {"epidermal cells": {"test_system": "epidermal cells", "conditions": "pyramidal CMC-microneedle array, 5 mg/g of CMC, arrays removed after 5 minutes, 72 hours of exposure", "procedure": "Cytoxan® was integrated at a concentration of 5 mg/g of CMC, enabling delivery of approximately about 140 μg per array. This is a therapeutically relevant concentration based on the area of skin targeted, yet well below levels associated with systemic toxicities. Living human skin organ cultures were used to assess the cytotoxicty of Cytoxan®. Cytoxan® was delivered by application of arrays to skin explants as we previously described. Arrays and residual material were removed 5 minutes after application, and after 72 hours of exposure, culture living skin explants were cryo-sectioned and fixed. Apoptosis was evaluated using green fluorescent TUNEL assay (In Situ Cell Death Detection Kit, TMR […], Roche, cat #:11-684-795-910)."}, "B16 melanoma": {"test_system": "B16 melanoma", "assay": "Treatment of established B16 skin tumors with MNAs", "conditions": "MNAs once weekly for three weeks; for survival: combination: long term survival through day 70", "method": "B16 skin tumors were established in normal mice by injection. Visible established cutaneous tumors were treated once weekly for three weeks with MNAs containing either doxorubicin alone, Poly(I:C) alone, or doxorubicin and Poly(I:C) incorporated into the same MNA. […] Tumor growth and survival were measured regularly for the duration of the study."}, "human skin": {"test_system": "human skin", "assay": "Apoptosis in human skin at the chosen MNA doxorubicin dose", "conditions": "MNA dose chosen for the tumor study"}}}
{"molecule": "O=P1(N(CCCl)CCCl)NCCCO1", "note": "(stereo not drawn) [Cytoxan®, cyclophosphamide]", "values": [{"measurement": "apoptosis (TUNEL)", "setting": "epidermal cells", "result": "extensive apoptosis of epidermal cells"}]}
{"molecule": "COc1cccc2c1C(=O)c1c(O)c3c(c(O)c1C2=O)C[C@@](O)(C(=O)CO)C[C@@H]3O[C@H]1C[C@H](N)[C@H](O)[C@H](C)O1", "note": "[doxorubicin]", "values": [{"measurement": "tumor growth", "setting": "B16 melanoma", "result": "slowed tumor growth"}, {"measurement": "survival", "setting": "B16 melanoma", "result": 30, "unit": "%"}, {"measurement": "apoptosis and necrosis in human skin", "setting": "human skin", "result": "induces apoptosis in human skin without causing necrosis"}]}
{"molecule": "Poly(I:C)", "values": [{"measurement": "tumor growth", "setting": "B16 melanoma", "result": "slowed tumor growth"}, {"measurement": "survival", "setting": "B16 melanoma", "result": 50, "unit": "%"}]}
